The source of these data is US4530840A, “Injectable, long-acting microparticle formulation for the delivery of anti-inflammatory agents” (priority 1982, dated 1985).

A word on the solubility: it is how much of the substance goes into solution per volume.

Data set [1] is described as follows: In vitro release / dissolution of methylprednisolone acetate in 50 wt % aqueous ethanol at 37° C. To be noted: unencapsulated. The class given is physicochemical.
Description: The in vitro release of methylprednisolone acetate from microparticles into a receiving fluid comprising 50 wt % of aqueous ethanol maintained at 37° C. was measured.
Triplicate samples of 20 mg of microparticles were weighed and each sample was placed in an 8-oz bottle containing 150 mL of 50 wt % aqueous ethanol. […] Next, the bottles were sealed with a thin sheet of Teflon and a screw cap to prevent evaporation. The bottles were then placed in an Eberbach shaker bath oscillating at 120 cycles/min and maintained at 37° C. The amount of drug released from the microparticles as a function of time was measured by determining the absorbance of the aqueous ethanol receiving fluid at 247 nm and by using the following equation based on Beer's Law.
methylprednisolone acetate in g/ml.
Data set [2] in a line: Saturation solubility in 50 wt % aqueous ethanol. Format: physicochemical. To be noted: organic solvent or mixture, 50 wt % of aqueous ethanol.

The structures appear in SMILES notation.

For the compound `CC(=O)OCC(=O)[C@@]1(O)CC[C@H]2[C@@H]3C[C@H](C)C4=CC(=O)C=C[C@]4(C)[C@H]3[C@@H](O)C[C@@]21C` [Methylprednisolone acetate, 6α-methylprednisolone acetate], the dissolution complete in data set [1] is recorded as 30 min. The solubility in data set [2] is over 3000 µg/mL.
